Laboratory results as given in patent publication US20160122268A1, “PROCESS FOR SIMULTANEOUS EXTRACTION AND SEPARATION OF ESTERIFIED AND UNESTERIFIED MONOHYDROXYCAROTENOIDS” (UNIVERSITY OF MARYLAND, COLLEGE PARK, priority 2013, published 2016).

Assay: Solubility in hydrocarbon solvents (pentane or hexane), observed in Soxhlet extraction
Assay type: physicochemical
Settings: boiling pentane or hexane
Description: In an alternative process, Soxhlet extraction of mono- and dihydroxycarotenoids can also be carried out to separate these carotenoids. As mentioned earlier, esterified forms of lutein and zeaxanthin are well solubilized in hydrocarbon solvents such as n-hexane and n-pentane, whereas their unesterified parent compounds, […], show a remarkable difference in their solubility behavior and remain insoluble. In fact, […] are considerably more soluble in n-pentane or n-hexane than lutein and zeaxanthin.
Similarly, a mixture of zeaxanthin and β-cryptoxanthin can be separated by Soxhlet extraction with n-pentane or n-hexane due to their differential solubility in hydrocarbon solvents.
100 mg of 1:1 mixture of (3R)-β-cryptoxanthin (13) and (3R,3′R)-zeaxanthin (5) was subjected to Soxhlet extraction and these unesterified carotenoids were extracted with boiling pentane (b.p.=36° C.) or hexane (b.p.=69° C.). […] After 4 hours, the composition of the extract was: (3R)-β-cryptoxanthin (13) (85%) and (3R,3′R)-zeaxanthin (5) (15%). In a subsequent Soxhlet extraction with pentane or hexane, (3R)-β-cryptoxanthin (13) was obtained in 98% purity.

Compound	solubility in hydrocarbon solvents
CC1=C(/C=C/C(C)=C/C=C/C(C)=C/C=C/C=C(C)/C=C/C=C(C)/C=C/C2=C(C)C[C@@H](O)CC2(C)C)C(C)(C)C[C@H](O)C1 [compound 5, (3R,3′R)-zeaxanthin]	only sparingly soluble
CC(C=CC=C(C)C=CC1=C(C)CC(O)CC1(C)C)=CC=CC=C(C)C=CC=C(C)C=CC1C(C)=CCCC1(C)C [compound 9, (3R,6′R)-α-cryptoxanthin]	much greater solubility than lutein
CC1=C(/C=C/C(C)=C/C=C/C(C)=C/C=C/C=C(C)/C=C/C=C(C)/C=C/C2=C(C)C[C@@H](O)CC2(C)C)C(C)(C)CCC1 [compound 13, (3R)-β-cryptoxanthin]	significantly better solubility
